The text below walks through data of patent publication US7960376B2, “Benzo-fused heterocycles” (priority 2007, dated 2011).

Assay [1] has as its target human CB2 receptor (hCB2) (Homo sapiens, UniProt P34972). Put plainly: cell-based. The format is cell-based. To be noted: intracellular cAMP, CHO-K1 cells, NKH-477 prestimulated; + agonist, − inverse agonist.
In assay [2] the target is T1, rat CB2 receptor (rCB2) (Rattus norvegicus, UniProt Q9QZN9).
T1 sequence (Q9QZN9 1-360): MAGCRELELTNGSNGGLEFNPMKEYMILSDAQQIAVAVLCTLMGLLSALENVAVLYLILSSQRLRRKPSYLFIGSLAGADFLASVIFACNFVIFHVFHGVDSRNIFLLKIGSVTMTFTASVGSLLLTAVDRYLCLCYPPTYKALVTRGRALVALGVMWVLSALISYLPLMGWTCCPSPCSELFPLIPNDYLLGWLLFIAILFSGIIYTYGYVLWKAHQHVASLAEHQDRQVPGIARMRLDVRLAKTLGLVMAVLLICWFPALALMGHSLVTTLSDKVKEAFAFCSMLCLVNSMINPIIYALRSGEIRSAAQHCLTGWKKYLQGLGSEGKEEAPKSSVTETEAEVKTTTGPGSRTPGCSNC
As to the kind of experiment: cell-based. The format is cell-based. Conditions: intracellular cAMP, CHO-K1 cells, NKH-477 prestimulated; + agonist, − inverse agonist.

Assay [3] deals with human CB1 receptor (hCB1) (Homo sapiens, UniProt P21554). As to the kind of experiment: cAMP assay (LANCE TR-FRET) in CHO-K1 cells expressing hCB1. The format is cell-based. Conditions: intracellular cAMP, NKH-477 prestimulated, + agonist, − inverse agonist. On the technique in general: Cyclic AMP is a second messenger, typically raised through Gs and lowered through Gi signalling.

The test system of assay [4] is CFA-induced mechanical hyperalgesia. Put plainly: Anti-hyperalgesia in the Complete Freund's Adjuvant (CFA) model of inflammatory pain, Randall-Selitto paw pressure. To be noted: rat, injured paw, Pre-CFA 175 ± 4 g, Post-CFA 100 ± 3 g, cut-off 260 g, mean ± SEM, p < 0.05 vs Post-CFA. The format is in vivo, Male Sprague-Dawley rats.

The structures appear in SMILES notation.

Chain of human CB1 receptor (hCB1) (P21554 whole entry): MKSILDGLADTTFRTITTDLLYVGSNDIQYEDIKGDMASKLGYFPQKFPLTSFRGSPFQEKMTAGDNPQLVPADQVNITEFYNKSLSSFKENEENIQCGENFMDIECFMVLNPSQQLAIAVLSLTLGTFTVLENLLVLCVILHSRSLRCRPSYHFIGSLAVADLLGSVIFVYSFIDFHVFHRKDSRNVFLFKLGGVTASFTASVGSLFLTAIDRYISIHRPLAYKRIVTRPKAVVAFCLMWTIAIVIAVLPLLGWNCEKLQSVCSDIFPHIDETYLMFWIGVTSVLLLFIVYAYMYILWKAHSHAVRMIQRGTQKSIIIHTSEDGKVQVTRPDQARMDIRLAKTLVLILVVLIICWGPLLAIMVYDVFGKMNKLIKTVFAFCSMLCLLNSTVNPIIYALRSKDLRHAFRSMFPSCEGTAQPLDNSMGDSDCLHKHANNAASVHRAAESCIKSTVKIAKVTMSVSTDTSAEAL
Chain of human CB2 receptor (hCB2) (P34972 whole entry): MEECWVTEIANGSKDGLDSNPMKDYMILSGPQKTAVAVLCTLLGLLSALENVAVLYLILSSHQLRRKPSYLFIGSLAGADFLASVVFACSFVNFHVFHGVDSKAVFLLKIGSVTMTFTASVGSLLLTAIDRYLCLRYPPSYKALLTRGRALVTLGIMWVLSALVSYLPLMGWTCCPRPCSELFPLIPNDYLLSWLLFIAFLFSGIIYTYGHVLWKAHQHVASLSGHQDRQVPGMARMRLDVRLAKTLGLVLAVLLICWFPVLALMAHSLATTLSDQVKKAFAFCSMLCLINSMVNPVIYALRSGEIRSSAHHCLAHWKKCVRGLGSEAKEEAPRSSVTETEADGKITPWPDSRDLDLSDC

On to `O=C(NC1CCCC1)c1ccc2c(c1)N(S(=O)(=O)c1ccc(F)cc1)CCS2` [Example 45, N-cyclopentyl-4-(4-fluorophenylsulfonyl)-3,4-dihydro-2H-benzo[b][1,4]thiazine-6-carboxamide], for which, in assay [1], the “hCB2 EC50 range” value is on record as “+B”. The “rCB2 EC50 range” value in assay [2] is on record as “+A”. Moreover, the “hCB1 EC50 range” value in assay [3] is recorded as “+D”. Further, the “Test Threshold” value in assay [4] (1 mg/paw intrapaw) came out at 179 ± 19 g.
Turning to `Cc1c(C(=O)c2cccc3ccccc23)c2cccc3c2n1[C@H](CN1CCOCC1)CO3` [WIN 55212, 2, reference compound], in assay [4] (0.1 mg/paw intrapaw), the “Test Threshold” value came to 255 ± 5 g.
